# Experimental data reported in patent US20230348442A1, “GALECTIN-3 INHIBITING 2-HYDROXYCYCLOALKANE-1-CARBAMOYL DERIVATIVES” (Idorsia Pharmaceuticals Ltd, priority 2020, published 2023).
# Target: human Gal-3 (hGal-3) (Homo sapiens (Human), UniProt P17931)
# Experiment: competitive binding assay: binding of biotinylated hGal-3 to microplate-adsorbed asialofetuin (ASF), spectrophotometric
# Conditions: Activity on hGal-3; mean values of several measurements
# Summary of the method: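 Compounds diluted in DMSO competed with biotinylated hGal-3 or hGal-1 (300-1000 ng/mL) for binding to plate-adsorbed asialofetuin for 3 h at 4° C. Bound galectin was detected with streptavidin-peroxidase (80 ng/mL, 1 h, 4° C) and ABTS substrate; IC50 reported as mean of several measurements.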
# human Gal-3 (hGal-3), sequence (P17931 whole entry): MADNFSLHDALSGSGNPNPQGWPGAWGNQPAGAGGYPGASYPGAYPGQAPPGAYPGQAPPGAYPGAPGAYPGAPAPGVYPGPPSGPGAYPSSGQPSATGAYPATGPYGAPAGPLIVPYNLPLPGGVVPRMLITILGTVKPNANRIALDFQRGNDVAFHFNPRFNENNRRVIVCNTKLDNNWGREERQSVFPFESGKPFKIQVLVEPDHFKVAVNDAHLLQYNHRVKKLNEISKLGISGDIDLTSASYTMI
row,Structure (SMILES),IC50 [µM]
1,"CO[C@@H]1[C@@H](n2cc(-c3cc(F)cc(Br)c3)nn2)[C@@H](O)[C@@H](CO)O[C@H]1C(=O)N(c1cc(Cl)cc(C#N)c1)[C@H]1CCC[C@@H]1O [Example 1.10.4, (2R,3R,4S,5R,6R)-4-(4-(3-bromo-5-fluorophenyl)-1H-1,2,3-triazol-1-yl)-N-(3-chloro-5-cyanophenyl)-5-hydroxy-N-((1S,2S)-2-hydroxycyclopentyl)-6-(hydroxymethyl)-3-methoxytetrahydro-2H-pyran-2-carboxamide]",0.0583
2,"CO[C@@H]1[C@@H](n2cc(-c3cc(F)c(F)c(Cl)c3)nn2)[C@@H](O)[C@@H](CO)O[C@H]1C(=O)N(c1cc(Br)cc(C#N)c1)[C@H]1CC[C@@H]1O [Example 2.7.5, (2R,3R,4S,5R,6R)-N-(3-bromo-5-cyanophenyl)-4-(4-(3-chloro-4,5-difluorophenyl)-1H-1,2,3-triazol-1-yl)-5-hydroxy-N-((1S,2S)-2-hydroxycyclobutyl)-6-(hydroxymethyl)-3-methoxytetrahydro-2H-pyran-2-carboxamide]",0.0803
3,"COc1cc(C#N)cc(N(C(=O)[C@@H]2O[C@H](CO)[C@H](O)[C@H](n3cc(-c4cc(F)cc(Br)c4)nn3)[C@H]2OC)[C@@H]2CC[C@H]2O)c1 [Example 2.10.9R, (2R,3R,4S,5R,6R)-4-(4-(3-bromo-5-fluorophenyl)-1H-1,2,3-triazol-1-yl)-N-(3-cyano-5-methoxyphenyl)-5-hydroxy-N-((1R,2R)-2-hydroxycyclobutyl)-6-(hydroxymethyl)-3-methoxytetrahydro-2H-pyran-2-carboxamide]",0.976
4,"COc1cc(-c2cn([C@H]3[C@@H](O)[C@@H](CO)O[C@@H](C(=O)N(c4cc(Cl)cc(Cl)c4)[C@@H]4CC[C@H]4O)[C@@H]3OC)nn2)cc(F)c1F [Example 2.3.2R, (2R,3R,4S,5R,6R)-N-(3,5-dichlorophenyl)-4-(4-(3,4-difluoro-5-methoxyphenyl)-1H-1,2,3-triazol-1-yl)-5-hydroxy-N-((1R,2R)-2-hydroxycyclobutyl)-6-(hydroxymethyl)-3-methoxytetrahydro-2H-pyran-2-carboxamide]",0.19
